Tests used:
[1] = tested on: neutral sphingomyelinase (N-SMase); experiment: Neutral sphingomyelinase assay after TNF-α stimulation of HH-25 cells; format: cell-based, human; conditions: TNF-α 10 ng/ml
Method: FIG. 1 illustrates the effect of TNF-α on neutral sphingomyelinase activity and is explained in more detail as follows: Confluent cultures of HH-25 cells were washed once with PBS and incubated in serum free media for 30 minutes prior to the addition of TNF-α (10 ng/ml). At the indicated time, cells were harvested in PBS, pelleted and frozen. Cells were subsequently lysed as described in materials and methods. N-SMase assays were performed in duplicate as described. Error bars represent ±one standard deviation from the mean.
After stimulation with TNF-α for the indicated time intervals, the cells were washed once with 5 ml PBS and harvested. The pellet was stored frozen at −70° C. and resuspended in 0.5 ml buffer B (100 mM Tris HCl pH 7.4, 0.1% triton X-100, 1 mM EDTA and protease inhibitors). The cell suspension was sonicated 3 times (3 second bursts) using a probe sonicator and centrifuged at 500×g at 4° C. for 5 minutes. The supernatant was used as the enzyme source.
100 μg of protein was assayed for neutral sphingomyelinase activity in a buffer consisting of 5 mM Tris HCl pH 7.4, 0.1% triton X-100, 0.1 mg BSA, 5 mM MgCl2, and […] [^14C] sphingomyelin (12,000 dpm). The assay was incubated at 37° C. for 1.5 hours and terminated with the addition of 1 ml of 10% TCA. […]

SREBP-1 [2] = experiment: Indirect immunofluorescence of SREBP-1 subcellular localization; format: cell-based, human; conditions: 30 minutes after initiating treatment; TNF-α 10 ng/ml, sphingomyelinase 100 mUnits, C2-ceramide 10 μM
Method: FIGS. 5A-5D show indirect immunofluorescence of SREBP-1. FIGS. 5A-5D are discussed in more detail as follows. SREBP-1 was visualized with rabbit polyclonal antibodies directed towards the N-terminal DNA binding domain which is common to both the precursor and mature forms. Cells were maintained in media supplemented with 1 μg/ml 25-hydroxycholesterol and 15 μg/ml cholesterol for 24 hours before the experiment. Immunofluorescence was performed as described. All magnifications are 40× and all photographs were taken of samples that were fixed 30 minutes after initiating treatment. FIG. 5A) Control cells, FIG. 5B) Cells treated with TNF-α (10 ng/ml), FIG. 5C) Cells treated with sphingomyelinase (100 mUnits), FIG. 5D) Cells treated with C2-ceramide (10 μM).
Cultured HH-25 cells were grown on coverslips and treated as described. After treatment, the cells were washed 3×5 minutes with PBS containing 1 mM MgCl2 and 0.1 mM CaCl2 (solution A). The cells were fixed with 3% paraformaldehyde in solution A for 10 minutes and permeabilized with 0.5% Triton X-100 in solution A for 6 minutes at room temperature. The coverslips were then washed 3×5 minutes with solution A.
Primary antibody (anti-SREBP1) was used at a dilution of […] in PBS and applied for 1 hour with gentle shaking. The cells were washed as above and a FITC conjugated anti-rabbit IgG secondary antibody, was applied for ½ hour according to the instructions of the manufacturer. The coverslips were washed, mounted on microscope slides and were viewed and photographed at the indicated magnification on a Zeiss Axiovert 25 fluorescence microscope.

LDL receptor mRNA = experiment: LDL receptor mRNA, Northern analysis in human hepatocytes; format: cell-based; conditions: TNF-α treatment
Method: (§1) Briefly, human hepatocytes(1×10^4) were seeded in sterile 100 mm^2 in medium containing 10% dialyzed, heat inactivated fetal bovine serum without antibiotics. Twenty four hours later medium was replaced with 9 ml of fresh serum free medium. After incubation for 30 min at 37° C. 5-40 μg of the plasmid DNA in 1 ml of a CaCl2 solution (mixed with equal volume of 0.25-2.5 M CaCl2 solution in HEPES buffer and HEPES buffer pH 6.95). Following gentle mixing incubation of cells was continued for 5-24 hr at 37° C. The transfection reaction was terminated by removing the medium and washing the cells with serum free medium. Next, fresh serum supplemented medium was added and incubation was continued for an additional 24 hr and cells were harvested in appropriate buffer centrifuged and stored frozen until further analysis. Cell pellets were homogenized and suitable aliquots subjected to Western immunoblot analysis as described below and in Examples 1-7 above. Total RNA was isolated from another batch of cells transfected as above and subjected to Northern analysis employing a ^32P labeled LDL receptor consensus sequence. The autoradiographs were developed and photographed.

SREBP-1 [3] = experiment: SREBP-1 maturation (Western immunoblot) in hepatocytes transfected with N-SMase plasmids or incubated with r-N-SMase; format: cell-based, human; conditions: C-2 ceramide positive control
Method: The present example was conducted to address whether the overexpression of N-SMase employing two separate N-SMase plasmid DNA(PHH-1, representing the entire nucleotide sequence in N-SMase cDNA and PHH-11, representing nucleotide sequence 862-1414) would increase the maturation of SREBP-1 and LDL receptor mRNA expression in a human hepatocyte cell line […]. Cells transfected with mock plasmid cDNA(PSV-SPOT) served as a control and cells incubated with C-2 ceramide previously shown to induce SREBP-1 maturation served as a positive control.
as §1, with “Cell pellets were homogenized and suitable aliquots subjected to Western immunoblot analysis as described below and in Examples 1-7 above. Total RNA was isolated from another batch of cells transfected as above and subjected to Northern analysis employing a ^32P labeled LDL receptor consensus sequence. The autoradiographs were developed and photographed.” left out

LDL receptor mRNA level (LDL receptor mRNA) | maturation of SREBP-1 in hepatocytes incubated with protein or ceramide (SREBP-1 [3]; r-N-SMase 0.4, 0.8, 2, and 4 μg/ml) | Compound | return of N-SMase activity to control levels [1] | maximal increase in neutral sphingomyelinase activity ([1]; 15 minutes after addition) | subcellular localization of SREBP-1 (staining pattern) (SREBP-1 [2]) | maturation of SREBP-1 compared to mock cDNA transfected cells (SREBP-1 [3]; PHH1 5,10,20,40 μg plasmid DNA/dish, PHH11 20 μg/dish)
induces LDL receptor mRNA level |  | TNF-α | ≤ 1 h | 2.5 fold | intense nuclear staining and little extra-nuclear staining | 
 | markedly increased | CCCCCCCCCCCCC/C=C/[C@@H](O)[C@H](CO)NC(C)=O [C2-ceramide, N-acetylsphingosine, reference compound] |  |  | intense nuclear staining and little extra-nuclear staining | markedly increased
